Active and inactive are the calls of the source. No cut-off for these calls is given here.

The species named for experiment [1] is Mus musculus. Kind of experiment: Inhibition of acetyl-CoA carboxylase in mouse SCR1163 cells assessed as reduction in [14C]-acetate incorporation into fatty acid at 0.1 to 1 uM after 4 hrs. In kind it is cell-based.
The species named for experiment [2] is Mus musculus. Nature of the experiment: Cytotoxicity against mouse SCR1163 cells at 1.25 to 10 uM after 24 to 72 hrs by MTT assay. In kind it is functional, cell-based.
Experiment [3] is filed under the species Mus musculus. Kind of experiment: Inhibition of acetyl-CoA carboxylase in mouse SCR1693 cells assessed as reduction in [14C]-acetate incorporation into fatty acid at 0.1 to 1 uM after 4 hrs. In kind it is cell-based.

The term inhibition denotes the percentage by which the read-out fell short of the control. In the case of `CO[C@@H]1C/C=C/[C@H](C)[C@@H]2O[C@](O)([C@H](C)C(=O)O[C@H](c3ccccc3)CCCC1)[C@H](OC)[C@@H](O)[C@@H]2C`, the inhibition was 59% in the experiment filed under Mus musculus [1] and 48% in the experiment filed under Mus musculus [3]. In addition, the outcome in the experiment filed under Mus musculus [2] was Active.
On to `CO[C@H]1CCCC[C@@H](c2ccccc2)OC(=O)[C@@H](C)[C@@]2(O)O[C@H]([C@@H](C)[C@H](O)[C@H]2OC)[C@@H](C)/C=C/[C@H]1OC`, for which the inhibition entry in the experiment listed under Mus musculus [1] and in the experiment listed under Mus musculus [3] was “Active” each time.
